The source of these data is ChEMBL document CHEMBL4371005, “Overview of the Development of DprE1 Inhibitors for Combating the Menace of Tuberculosis” (J Med Chem, 2018).

Each structure is given as a SMILES string. Converted amounts (≈) assume the structure as drawn.

The test system of assay [1] is Mycobacterium tuberculosis. Briefly: Antimycobacterial activity against Mycobacterium tuberculosis H37Rv harboring rv3405c mutant TRC4 after overnight incubation by REMA method. The class given is functional.
For assay [2], the system named is Mycobacterium tuberculosis. Briefly: Antimycobacterial activity against Mycobacterium tuberculosis H37Rv harboring deltarv3406 dprE1 L368P after overnight incubation by REMA method. The class given is functional.

As to `O=C(O)c1nc2ccc(C(F)(F)F)cc2nc1NCc1ccc(F)cc1`, the MIC99 in assay [1] and in assay [2] was 25 µM (≈ 9.13 µg/mL) in each case.
With `COc1ccc(CNc2nc3cc(C(F)(F)F)ccc3nc2C(=O)O)cc1`, the MIC99 turned out to be 6.3 µM (≈ 2.38 µg/mL) in assay [1] and 12.5 µM (≈ 4.72 µg/mL) in assay [2].
The matching figures for `CCOC(=O)c1nc2ccc(C(F)(F)F)cc2nc1NCc1ccc(OC)cc1`: 6.3 µM (≈ 2.55 µg/mL) and 12.5 to 25 µM.
On to `COc1ccc(CNc2nc3cc(C(F)(F)F)ccc3nc2C(=O)O)cc1F`, for which the MIC99 in assay [1] worked out at 12.5 µM (≈ 4.94 µg/mL); in assay [2], 25 µM (≈ 9.88 µg/mL).
The matching figures for `CCOc1ccc(CNc2nc3cc(C(F)(F)F)ccc3nc2C(=O)O)cc1`: 6.3 µM (≈ 2.47 µg/mL) and 12.5 µM (≈ 4.89 µg/mL).
The matching figures for `N#Cc1ccc(CNc2nc3cc(C(F)(F)F)ccc3nc2C(=O)O)cc1`: 50 µM (≈ 18.6 µg/mL) and 100 µM (≈ 37.2 µg/mL).
For the molecule `O=C(O)c1nc2ccc(C(F)(F)F)cc2nc1NCc1ccc(C(F)(F)F)cc1`, the MIC99 in assay [1] was found to be 12.5 µM (≈ 5.19 µg/mL); in assay [2], 25 µM (≈ 10.4 µg/mL).
The matching figures for `O=C(O)c1nc2ccc(C(F)(F)F)cc2nc1NCc1ccc(Cl)cc1`: 12.5 µM (≈ 4.77 µg/mL) and 25 µM (≈ 9.54 µg/mL).

What is called MIC99 is an inhibitory concentration at the 99% level, which refers to growth in some studies and to a panel of isolates in others. A low value points to greater potency.
